{"source": "patent US9326953B2", "about": "“Method and system for systemic delivery of growth arresting, lipid-derived bioactive compounds” (priority 2003, dated 2016)", "key": {"MDA cells [1]": {"test_system": "MDA cells", "test": "[3H]thymidine cell proliferation assay", "type": "cell-based, Human", "details": "[3H]thymidine incorporation, 10% FBS for 12 h of treatment; read-out: IC50 of C6, inhibition of MDA cell proliferation", "method": "To determine the utility of conventional lipid formulations for the delivery of short-chain ceramide to MDA cells, a [^3H]thymidine proliferation assay was performed. Briefly, MDA cells were seeded at 3.5×10^4 cells/well in 24-well plates and grown overnight prior to 24 h of serum starvation. At hour 12 of serum starvation, cells were treated with liposomal or nonliposomal C6 for the remainder of serum starvation. Following serum starvation, media was then supplemented with FBS (10% final concentration) for an additional 12 h, and cellular proliferation was assayed with the addition of 0.5 mCi/ml [^3H]thymidine for the final 4 h of treatment. Cells were washed once with cold PBS and then twice with 10% trichloric acetic acid for 10 min. Cells were solubilized with 0.3 N NaOH, and [^3H]thymidine incorporation into acid-insoluble DNA was assessed with a scintillation counter."}, "MDA cells [2]": {"test_system": "MDA cells", "test": "TUNEL staining of cleaved DNA", "type": "cell-based, Human", "method": "An investigation to determine whether C6-dependent growth inhibition correlates with enhanced apoptosis was undertaken. To confirm that C6 delivery leads to MDA cell apoptosis, TUNEL analysis (Upstate Biotechnology, Lake Placid, N.Y.) was performed, which stains cleaved DNA, a hallmark of cellular apoptosis (FIG. 7A)."}, "[3]": {"test": "Toxicity after intravenous injection", "type": "in vivo", "details": "injection at 10 mg/kg"}}}
{"smiles": "CCCCCCCCCCCCC/C=C/[C@@H](O)[C@H](CO)NC(=O)CCCCC", "note": "[nonliposomal C6, D-erythro-hexanoyl-sphingosine]", "values": [{"measurement": "IC50", "setting": "MDA cells [1]", "value": 15, "unit": "µM"}, {"measurement": "DNA fragmentation (TUNEL) at 16 h", "setting": "MDA cells [2]; 20 μM, 16 h of treatment", "value": "induced DNA fragmentation"}, {"measurement": "DNA fragmentation (TUNEL) at 8 h", "setting": "MDA cells [2]; cycling, serum-fed MDA cells, 8 h", "value": "no DNA fragmentation"}, {"measurement": "mice killed", "setting": "[3]", "value": 50, "unit": "%"}]}
